Biological target: ADRB2 (Homo sapiens, UniProt P07550)
Conditions: 100 μM compound, 5 nM barcoded β-arr2, GRK2
Experimental: A compound library could be screened in multi-well plates, and in each well, one compound was assayed with many barcoded GPCRs and a β-arrestin-2 (β-arr2) protein bearing a well-position-associated barcode (FIG. 3C). All the samples were pooled and deposited on one slide, and the interaction of a GPCR with a compound was detected by the increased GPCR polony co-localization with the corresponding β-arr2 polonies. […] The co-localization ratios were measured at 50 imaging positions on the array for statistical analysis.
A GPCR-β-arr2 binding assay was performed by mixing a ligand with ˜1 nM GPCR-nanodisc complexes in an assay buffer A2 (20 mM HEPES, pH 7.5, 50 mM KOAc, 2 mM EDTA and 5 mM MgCl2), followed by addition of 10 nM GRK2 (Life Technologies), 0.1 mM ATP, 10 nM G protein β1γ2 subunits (KeraFAST) and 5 nM barcoded β-arr2 in a total volume of 25 μL. Compounds were assayed in parallel using a multi-well plate, and the reactions were incubated at 30° C. for 30 min. Similarly as described above, GPCR-β-arr2 complexes were crosslinked and both crosslinked and free GPCRs were purified from the reactions with the anti-HA magnetic beads. Proteins were pooled and analyzed on a single array.

Chain of ADRB2 (P07550 whole entry): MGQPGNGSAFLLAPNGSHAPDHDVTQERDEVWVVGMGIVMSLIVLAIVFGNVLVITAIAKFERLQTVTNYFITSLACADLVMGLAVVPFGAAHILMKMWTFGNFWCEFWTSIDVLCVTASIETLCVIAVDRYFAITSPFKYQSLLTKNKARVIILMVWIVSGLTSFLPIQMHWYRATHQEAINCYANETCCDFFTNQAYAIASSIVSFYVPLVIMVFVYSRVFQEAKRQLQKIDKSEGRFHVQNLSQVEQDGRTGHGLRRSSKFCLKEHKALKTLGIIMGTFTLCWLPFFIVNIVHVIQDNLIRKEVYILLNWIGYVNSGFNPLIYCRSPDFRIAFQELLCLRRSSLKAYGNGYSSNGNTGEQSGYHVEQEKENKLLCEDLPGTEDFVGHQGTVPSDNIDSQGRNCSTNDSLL

CC(C)NCC(O)COc1cccc2[nH]ccc12 (stereo not shown) [pindolol]
agonist type identified by polony co-localization ratios: partial
